Experimental data from patent publication EP4711368A1 (priority 2023, dated 2024).
Like-named read-outs stand apart in the source and are kept apart here.

How the values were obtained:
SD rats [1] = assay: animal or person; assay type: in vivo; conditions: iv; for minimal effective dose: Rattus norvegicus; for Onset time / Righting feflex duration / Sedation Duration: rat, in vivo
SD rats [2] = conditions: rat, in vivo; for MLD: iv
[3] = read-out: Minimal effective anesthetic dose
[4] = read-out: Minimal effective analgesic dose
For Onset time in this document: test concentration or dose not given here.
For Righting feflex duration in this document: test concentration or dose not given here.
For Sedation Duration in this document: test concentration or dose not given here.

Row | Compound | minimal effective dose (SD rats [1]; [3]) | Onset time (SD rats [1]) | Righting feflex duration (SD rats [1]) | Sedation Duration (SD rats [1]) | TI (SD rats [2]; SD) | MLD (SD rats [2]; SD) | minimal effective dose (SD rats [1]; [4]) | MLD (SD rats [2])
1 | C=CC1(OC(=O)CN2N=C(c3ccccn3)c3cc(Br)ccc3N(C)C2=O)COC1 [Compound 254] | 10 mg/kg | 0.60 to 0.65 min | 0.78 to 3.10 min | 29.25 to 40.22 min | 2 | 20 mg/kg |  | 
2 | CCC(C)(C)OC(=O)CN1N=C(c2ccccn2)c2cc(Br)ccc2N(C)C1=O [Compound 255] | 15 mg/kg | 0.53 to 0.97 min | 12.27 to 13.62 min | 43.43 to 66.14 min | 2 | 30 mg/kg | 20 mg/kg | 
3 | CCN1C(=O)N(CC(=O)OC(C)C)N=C(c2ccccn2)c2cc(Br)ccc21 [Compound 256] | 5 mg/kg | 0.17 to 0.50 min | 0.32 to 26.03 min | 13.38 to 59.65 min | 6 | 30 mg/kg | 10 mg/kg | 
4 | CC(C)OC(=O)CN1N=C(c2ccccn2)c2cc(Br)ccc2N(C(C)C)C1=O [Compound 257] | 10 mg/kg | 0.77 to 1.48 min | 5.85 to 20.40 min | 33.47 to 64.03 min | 4 | 40 mg/kg | 10 mg/kg | 
5 | CC(C)OC(=O)CCN1N=C(c2ccccn2)c2cc(Br)ccc2N(C)C1=O [Compound 260] | 40 mg/kg | 0.12 min | 7.52 min | 55.52 min | 1.4 | 55 mg/kg | 40 mg/kg | 
6 | CCn1nnnc1CCN1N=C(c2ccccn2)c2cc(Br)ccc2N(C)C1=O [Compound 264] | 5 mg/kg | 0.43 min | 1.77 min | 8.93 min | 2 | 10 mg/kg |  | 
7 | CC(C)n1nnnc1CCN1N=C(c2ccccn2)c2cc(Br)ccc2N(C)C1=O [Compound 266] | 5 mg/kg | 0.40 to 0.52 min | 0.58 to 4.00 min | 12.07 to 16.32 min | 3 |  |  | 15 mg/kg
8 | CC(C)n1nnc(CCN2N=C(c3ccccn3)c3cc(Br)ccc3N(C)C2=O)n1 [Compound 267] | 20 mg/kg | 0.72 min | 0.28 min | 12.33 min | 2 | 40 mg/kg |  | 
9 | COc1nonc1CCN1N=C(c2ccccn2)c2cc(Br)ccc2N(C)C1=O [Compound 273] | 10 mg/kg | 0.25 to 0.27 min | 2.38 to 9.68 min | 43.97 to 44.82 min | >2 | >20 mg/kg |  | 
10 | CCOc1nonc1CCN1N=C(c2ccccn2)c2cc(Br)ccc2N(C)C1=O [Compound 274] | 27.4 mg/kg | 0.18 min | 4.57 min | 25.87 min | >1 | >27.4 mg/kg |  | 
11 | CC(C)Oc1nonc1CCN1N=C(c2ccccn2)c2cc(Br)ccc2N(C)C1=O [Compound 275] | 30 mg/kg | 0.93 to 4.90 min | 6.37 to 17.25 min |  | >2 | >60 mg/kg |  | 
12 | CC(C)C(=O)CN1N=C(c2ccccn2)c2cc(Br)ccc2N(C)C1=O [Compound 279] | 15 mg/kg | 0.35 min | 3.77 min | 62.22 min | 1.3 |  |  | 20 mg/kg
13 | CN1C(=O)N(CCc2cccs2)N=C(c2ccccn2)c2cc(Br)ccc21 [Compound 284] | 40 mg/kg | 0.2 min | 20 min | 70.72 min | >1 | >40 mg/kg |  | 
14 | CN1C(=O)N(COCc2ccccc2)N=C(c2ccccn2)c2cc(Br)ccc21 [Compound 286] | 2.5 mg/kg | 1.32 to 3.20 min | 3.38 to 9.38 min | 42.15 to 64.37 min | 3 | 7.5 mg/kg |  | 
15 | CC(C)C(=O)OCN1N=C(c2ccccn2)c2cc(Br)ccc2N(C)C1=O [Compound 287] | 10 mg/kg | 0.32 to 0.43 min | 0.63 to 7.53 min | 44.20 to 46.25 min | 3 | 30 mg/kg |  | 
16 | CN1C(=O)N(COC(=O)CCl)N=C(c2ccccn2)c2cc(Br)ccc21 [Compound 288] | 15 mg/kg | 0.80 min | 2.45 min | 33.18 min | 1.3 | 20 mg/kg |  | 

Row | Compound | minimal effective dose (SD rats [1]; [3]) | Onset time (SD rats [1]) | Righting feflex duration (SD rats [1]) | Sedation Duration (SD rats [1]) | TI (SD rats [2]; SD) | MLD (SD rats [2]; SD) | minimal effective dose (SD rats [1]; [4]) | MLD (SD rats [2])
17 | CC(C)OC(=O)OCN1N=C(c2ccccn2)c2cc(Br)ccc2N(C)C1=O [Compound 289] | 5 mg/kg | 0.15 to 0.68 min | 0.53 to 32.23 min | 20.27 to 311.87 min | 8.3 | 41.7 mg/kg | 20 mg/kg | 
18 | CN1C(=O)N(COC(=O)CCCl)N=C(c2ccccn2)c2cc(Br)ccc21 [Compound 290] | 15 mg/kg | 0.45 min | 6.63 min | 18.08 min | 1.3 | 20 mg/kg | 15 mg/kg | 
19 | CN(C)C(=O)OCN1N=C(c2ccccn2)c2cc(Br)ccc2N(C)C1=O [Compound 291] | 15 mg/kg | 0.65 to 0.92 min | 2.03 to 5.98 min |  | 2 | 30 mg/kg | 15 mg/kg | 
20 | CCN(C)C(=O)OCN1N=C(c2ccccn2)c2cc(Br)ccc2N(C)C1=O [Compound 292] | 20 mg/kg | 0.40 min | 2.75 min | 46.82 min | 1.5 | 30 mg/kg | 20 mg/kg | 
21 | CC(C)N(C)C(=O)OCN1N=C(c2ccccn2)c2cc(Br)ccc2N(C)C1=O [Compound 293] | 15 mg/kg | 0.95 min | 4.20 min | 82.85 min | 1.3 | 20 mg/kg | 15 mg/kg | 
22 | CON(C)C(=O)OCN1N=C(c2ccccn2)c2cc(Br)ccc2N(C)C1=O [Compound 294] | 15 mg/kg | 0.52 to 0.55 min | 3.35 to 6.47 min | 28.68 to 40.58 min | >1.3 | >20 mg/kg |  | 
23 | CN1C(=O)N(COC(=O)N2CCCC2)N=C(c2ccccn2)c2cc(Br)ccc21 [Compound 295] | 20 mg/kg | 0.20 to 0.52 min | 3.70 to 13.25 min | 34.23 to 172.50 min | 2 | 40 mg/kg |  | 
24 | CC(C)C(=O)OCCN1N=C(c2ccccn2)c2cc(Br)ccc2N(C)C1=O [Compound 298] | 10 mg/kg | 0.22 to 0.38 min | 6.73 to 8.97 min | 17.03 to 30.07 min | 2 | 20 mg/kg |  | 
25 | CN1C(=O)N(CCOC(=O)CCl)N=C(c2ccccn2)c2cc(Br)ccc21 [Compound 300] | 40 mg/kg | 0.25 min | 4.67 min | 76.20 min | >1 | >40 mg/kg |  | 
26 | CC(F)C(=O)OCCN1N=C(c2ccccn2)c2cc(Br)ccc2N(C)C1=O (centres unmarked) [Compound 303] | 20 mg/kg | 0.43 min | 14.30 min | 74.88 min | >1 | >20 mg/kg |  | 
27 | CN(C)C(=O)OCCN1N=C(c2ccccn2)c2cc(Br)ccc2N(C)C1=O [Compound 304] | 5 mg/kg | 0.18 to 0.57 min | 1.92 to 5.35 min | 10.57 to 18.57 min | 4 | 20 mg/kg |  | 
28 | CCOC(=O)CN1N=C(c2ccccn2)c2cc(Br)ccc2-n2c(C)cnc21 [Compound 307] | 8.75 mg/kg | 0.27 to 0.73 min | 0.90 to 4.27 min | 20.87 to 32.75 min | >1.7 | >15.15 mg/kg |  | 
29 | CC[C@@H](C)OC(=O)CN1N=C(c2ccccn2)c2cc(Br)ccc2-n2c(C)cnc21 [Compound 309] | 2.5 mg/kg | 0.35 to 0.55 min | 2.38 to 18.82 min | 27.68 to 46.83 min | 6 | 15 mg/kg | 12.5 mg/kg | 
30 | C=CC(C)OC(=O)CN1N=C(c2ccccn2)c2cc(Br)ccc2-n2c(C)cnc21 (centres unmarked) [Compound 310] | 10 mg/kg | 0.15 to 0.52 min | 2.97 to 38.32 min | 138.40 to 240 min | 4 | 40 mg/kg | 20 mg/kg | 
31 | Cc1cnc2n1-c1ccc(Br)cc1C(c1ccccn1)=NN2CC(=O)OC1COC1 [Compound 311] | 5 mg/kg | 0.17 to 0.48 min | 2.28 to 12.30 min | 25.88 to 54.23 min | 6 | 30 mg/kg | 10 mg/kg | 
32 | C#C[C@@H](C)OC(=O)CN1N=C(c2ccccn2)c2cc(Br)ccc2-n2c(C)cnc21 [Compound 312] | 10 mg/kg | 0.15 to 0.52 min | 2.97 to 38.32 min | 138.40 to 240 min | 4 | 40 mg/kg | 10 mg/kg | 
